# Measured values: patent US10905117B2, “Antimicrobial agent containing polyalkyleneimine derivative” (NIPPON SHOKUBAI CO., LTD, priority 2014, dated 2021)
# Legend:
# Type in all cases: cell-based
# [1] = system: Escherichia coli (NBRC-3972) and/or Staphylococcus aureus (NBRC-12732); assay: MIC in the presence of an anionic surfactant; conditions: in the presence of linear alkylbenzene sulfate 80 ppm and polyoxyalkylenealkyl ether sulfate 80 ppm
# Description: An aqueous solution containing the antimicrobial agent was serially diluted by two fold with a Mueller-Hinton medium to prepare dilution series of a medium containing the antimicrobial agent. After that, the medium containing the antimicrobial agent at each concentration was added, in an amount of 50 μl each, to a 96 well polystyrene plate. Next, colonies of Escherichia coli (NBRC-3972) and/or Staphylococcus aureus (NBRC-12732) which have been grown for 18 hours in a Mueller-Hinton agar medium were suspended in a Butterfield's buffer solution to prepare a liquid containing microbial cells of 10×10^8 cells/mL or so. The prepared liquid containing microbial cells was diluted to 10×10^6 cells/mL or so in a Mueller-Hinton medium, and added in an amount of 50 μl to each of the dilution series prepared in the above. […] Presence or absence of the growth of the bacterial cells was determined with a naked eye by following an increase in turbidity.
# As for the anionic surfactant, linear alkylbenzene sulfate was used at 80 ppm and polyoxyalkylenealkyl ether sulfate was used at 80 ppm.
# [2] = system: Staphylococcus aureus (NBRC-12732); assay: Minimum growth inhibitory concentration (MIC); conditions: 0.1% by weight agent with 1% by weight NaOH, pH 12.5, stored 18 days at 55° C.
# Description: (§1) An aqueous solution containing the antimicrobial agent was serially diluted by two fold with a Mueller-Hinton medium to prepare dilution series of a medium containing the antimicrobial agent. After that, the medium containing the antimicrobial agent at each concentration was added, in an amount of 50 μl each, to a 96 well polystyrene plate. […] The prepared liquid containing microbial cells was diluted to 10×10^6 cells/mL or so in a Mueller-Hinton medium, and added in an amount of 50 μl to each of the dilution series prepared in the above. […] Presence or absence of the growth of the bacterial cells was determined with a naked eye by following an increase in turbidity. To an aqueous solution added with the polymer 1 which has been obtained in Preparation Example 1 and benzalkonium chloride at 0.1% by weight, various kinds of alkali modifying agent shown in Table 8 were mixed at 1% by weight to prepare an antimicrobial agent composition. The storage stability test was carried out for the antimicrobial agent compositions for 18 days at 55° C. […] Meanwhile, MIC values were described as concentration of the antimicrobial agent.
# [3] = system: Escherichia coli (NBRC-3972); assay: Minimum growth inhibitory concentration (MIC); conditions: 0.1% by weight agent with 1% by weight NaOH, pH 12.5, stored 18 days at 55° C.
# Description: as §1
substance,measurement,setting,value
Benzalkonium chloride,MIC,[1],625 ppm
same,MIC Staphylococcus aureus after storage stability test,[2],250 ppm
same,MIC Escherichia coli after storage stability test,[3],250 ppm
